Data as given in a flash point compilation (Sun et al. 2020).

Row | Structure (SMILES) | flash point
1 | NCCCCCCN [1,6-Hexanediamine] | 81.0 °C
2 | CC(C)CO [2-Methyl-1-propanol] | 29.2 °C
3 | CN(C)c1ccccc1 [N,N-Dimethylaniline] | 75.0 °C
4 | CCCCC(C)O (stereo not given) [2-Hexanol] | 45.0 °C
5 | CCCCC1CCCCC1 [Cyclohexane, butyl-] | 52.5 °C
6 | CCCCCCS [1-Hexanethiol] | 32.5 °C
7 | CN(C)c1ccccc1 [N,N-DIMETHYLANILINE] | 62.0 °C
8 | Cc1ccncc1 [Pyridine, 4-methyl-] | 39.0 °C
9 | Cc1ccccc1 [TOLUENE] | 4.0 °C
10 | C=CCCCCCCCCCC [1-DODECENE] | 67 °C
11 | CCC(O)CC [3-PENTANOL] | 27 °C
12 | Cc1cccc(C)c1O [2,6-Dimethylphenol] | 85.0 °C
13 | CCCCCCCCCO [1-Nonanol] | 96.0 °C
14 | CCCCCOC(C)=O [Amyl acetate] | 37.0 °C
15 | CCCCCCCCCC(=O)O [Decanoic acid] | 148.0 °C
16 | CNc1ccccc1 [Benzenamine, N-methyl-] | 78 °C
17 | CCCCC(CC)CO (stereo not given) [2-Ethylhexanol] | 73 °C
18 | CCCCC(C)O (stereo not given) [2-HEXANOL] | 46.2 °C
19 | C=CCCC [1-PENTENE] | -54 °C
20 | CCCOC(C)=O [Propyl acetate] | 10.6 °C
21 | CCCCCCCCC=O [1-Nonanal] | 63.0 °C
22 | C=CC(C)CC (stereo not given) [1-Pentene, 3-methyl-] | -27.9 °C
23 | C=CC(C)(C)C [1-Butene, 3,3-dimethyl-] | -31.9 °C
24 | CC(C)C(C)O (stereo not given) [2-Butanol, 3-methyl-] | 26.0 °C
25 | CC(C)NC(C)C [Diisopropylamine] | -7.0 °C
26 | CCCC(C)CO (stereo not given) [1-Pentanol, 2-methyl-] | 50.0 °C
27 | CCc1ccccc1CC [1,2-Diethylbenzene] | 57.2 °C

Row | Structure (SMILES) | flash point
28 | Cc1ccccn1 [Pyridine, 2-methyl-] | 26.0 °C
29 | CCC1CCCC1 [Cyclopentane, ethyl-] | -0.0 °C
30 | CCCCCCCCCCCO [1-Undecanol] | 113.0 °C
31 | CC=C(C)C [2-Butene, 2-methyl-] | -44.9 °C
32 | CCCCCC(=O)CCCCC [6-Undecanone] | 88.4 °C
33 | COCCOC [1,2-Dimethoxyethane] | -1.6 °C
34 | NC1CCCC1 [Cyclopentanamine] | 11.5 °C
35 | CCCS [1-Propanethiol] | -19.9 °C
36 | Cc1ccc(C)c(C)c1 [1,2,4-TRIMETHYL BENZENE] | 45.5 °C
37 | Oc1ccccc1 [PHENOL] | 80 °C
38 | CCCCCC(C)=O [2-Heptanone] | 39.0 °C
39 | CCCCCC#N [HEXANENITRILE] | 47 °C
40 | C=CCCCC [1-HEXENE] | -31 °C
41 | CCCCCC#N [Hexanenitrile] | 43.0 °C
42 | C=CCCCCCCCC [1-Decene] | 47.0 °C
43 | CCC(C)(O)CC [3-Pentanol, 3-methyl-] | 24.0 °C
44 | CCCCCCN [1-Hexanamine] | 27.0 °C
45 | CCC(C)(C)C(=O)O [2,2-Dimethylbutyric acid] | 79.0 °C
46 | Cc1ccc(O)c(C)c1 [2,4-Dimethylphenol] | 95.0 °C
47 | Cc1ccc(C)cc1 [1,4-Dimethylbenzene] | 26 °C
48 | CCC(C)CO (stereo not given) [1-Butanol, 2-methyl-] | 43.0 °C
49 | CCCCCCCCCCCO [1-UNDECANOL] | 115 °C
50 | CCCCCCCS [1-Heptanethiol] | 50.5 °C
51 | Cc1cccc(C)c1 [1,3-Dimethylbenzene] | 25.0 °C
52 | CCCCS [Butanethiol] | 1.0 °C
53 | CCc1ccc(CC)cc1 [1,4-Diethylbenzene] | 57 °C
54 | C=CCCCCCCCCCCCCC [1-Pentadecene] | 112.0 °C

Continued, values first:

Row | flash point | Structure (SMILES)
55 | -15.0 °C | CCN(CC)CC [TRIETHYLAMINE]
56 | 44.0 °C | CCCCCC(C)CCC (stereo not given) [Nonane, 4-methyl-]
57 | 38.0 °C | CCc1cccc(C)c1 [m-Ethyltoluene]
58 | -18.9 °C | CCC(C)N (stereo not given) [sec-Butylamine]
59 | 5 °C | CCCC(CC)CC [Hexane, 3-ethyl-]
60 | 39 °C | CCCCC(C)CCCC [Nonane, 5-methyl-]
61 | 6.0 °C | CCCCCC(C)C [Heptane, 2-methyl-]
62 | -19.9 °C | CCCOCC [Propane, 1-ethoxy-]
63 | 90.0 °C | CCOCCOCCO [Ethanol, 2-(2-ethoxyethoxy)-]
64 | 14.0 °C | CCCCCCCC [Octane]
65 | 7.5 °C | CCCNCCC [Dipropylamine]
66 | 23.0 °C | CCCCC(CC)CC [Heptane, 3-ethyl-]
67 | 39.0 °C | COCCO [Ethanol, 2-methoxy-]
68 | 51.0 °C | CCCCCCCC=O [Octanal]
69 | 90.0 °C | CCCCCCCCCCCCC [Tridecane]
70 | 23.0 °C | CCCCC(C)CCC (stereo not given) [Octane, 4-methyl-]
71 | 110.0 °C | CCCCC(CC)C(=O)O (stereo not given) [Hexanoicacid, 2-ethyl-]
72 | 115.0 °C | CCCCCCC(=O)O [Heptanoic acid]
73 | -28.8 °C | CCC(C)N (stereo not given) [sec-BUTYLAMINE]
74 | 85.0 °C | CCc1ccccc1O [Phenol, 2-ethyl-]

Remark: another data set of the same source

Row | Structure (SMILES) | flash point
75 | CC[SiH2]CC [Diethylsilane] | -20.00 °C
76 | C[Si](Cl)(Cl)C(Cl)Cl [Dichloromethylmethyldichlorosilane] | 28.00 °C
77 | C[Si]1(C)CCCCO1 [1,1 -Dimethyl-1-sila-2-oxacyclohexane] | 14.00 °C
78 | CC[Si](OC(C)=O)(OC(C)=O)OC(C)=O [Ethyltriacetoxysilane] | 104.00 °C
79 | CC(C)(C)O[Si](C)(C)C [t-Butoxytrimethylsilane] | 14.00 °C
80 | C=C[Si]1(C)O[Si](C)(C=C)O[Si](C)(C=C)O[Si](C)(C=C)O1 (stereo not given) [2,4,6,8-Tetravinyl-2,4,6,8-tetramethylcyclotetrasiloxane] | 112.00 °C
81 | C[Si](C)(C)O[Si](C)(C)O[Si](C)(C)O[Si](C)(C)Cl [1-Chlorononamethyltetrasiloxane] | 74.00 °C
82 | CN(C)[Si](C)(C)N(C)C [Bis(dimethylamino)dimethylsilane] | -7.00 °C
83 | C[SiH](C)c1c(F)c(F)c(F)c(F)c1F [Dimethyl(pentafluorophenyl) silane] | 40.00 °C
84 | C[Si](C)(C)N=C=S [Trimethylsilylisothiocyanate] | 35.00 °C
85 | CC(C)(C)[Si](C)(Cl)C(C)(C)C [Di-t-butylmethylchlorosilane] | 69.00 °C

Results, then the compound that gave them:

Row | flash point | Structure (SMILES)
86 | 62.00 °C | CCCCCC[Si](OC)(OC)OC [Hexyltrimethoxysilane]
87 | 24.00 °C | CCO[Si](C)(OCC)OCC [Methyltriethoxysilane]
88 | 25.00 °C | CCC[Si](OC)(OC)OC [n-Propyltrimethoxysilane]
89 | 61.00 °C | C[Si](C)(Cl)c1ccccc1 [Phenyldimethylchlorosilane]
90 | -16.00 °C | C[Si](C)(Cl)Cl [Dimethyldichlorosilane]
91 | 102.00 °C | C[Si](C)(C)O[Si](C)(C)O[Si](C)(C)O[Si](C)(C)O[Si](C)(C)O[Si](C)(C)C [Tetradecamethylhexasiloxane]
92 | 27.00 °C | CCC[Si](C)(Cl)Cl [n-Propylmethyldichlorosilane]
93 | 10.00 °C | CCCO[Si](C)(C)C [Trimethyl-n-propoxysilane]
94 | 8.00 °C | C=C[Si](C)(C)C=C [Divinyldimethylsilane]
95 | 69.00 °C | ClC[Si](Cl)(Cl)Cl [Trichloro(Chloromethyl) silane]
96 | 30.00 °C | C[Si](C)(C)O[Si](C)(C)O[Si](C)(C)C [Octamethyltrisiloxane]
97 | 162.00 °C | CCCCCCCCCCCC[Si](Cl)(Cl)Cl [n-Dodecyltrichlorosilane]
98 | 91.00 °C | Cl[Si](Cl)(Cl)CCc1ccccc1 [Trichloro(2-phenylethyl)silane]
99 | 87.78 °C | CCO[Si](CCCS)(OCC)OCC [[3-(mercapto)propyl]triethoxysilane]
100 | 54.00 °C | CCCC[Si](Cl)(Cl)Cl [n-Butyltrichlorosilane]
101 | 121.00 °C | CO[Si](OC)(c1ccccc1)c1ccccc1 [Diphenyldimethoxysilane]
102 | 25.00 °C | CN(C)[SiH](N(C)C)N(C)C [Tris(dimethylamino)silane]
103 | -27.00 °C | CCO[Si](C)(C)C [Ethoxytrimethylsilane]
104 | 8.00 °C | C[Si](C)(C)N[Si](C)(C)C [Hexamethyldisilazane]
105 | 11.00 °C | CCO[Si](C)(C)OCC [Dimethyldiethoxysilane]
106 | 45.00 °C | CC(C)(C)[Si](C)(C)O [t-Butyldimethylsilanol]
107 | -8.00 °C | CO[Si](C)(C)OC [Dimethyldimethoxysilane]
108 | 11.00 °C | CO[Si](C)(OC)OC [Methyltrimethoxysilane]
109 | 91.00 °C | Cl[Si](Cl)(Cl)c1ccccc1 [Phenyltrichlorosilane]
110 | 138.00 °C | C[Si](Cl)(c1ccccc1)c1ccccc1 [Methyldiphenylchlorosilane]
111 | 142.00 °C | Cl[Si](Cl)(c1ccccc1)c1ccccc1 [Diphenyldichlorosilane]
112 | 21.00 °C | CO[Si](OC)(OC)OC [Tetramethoxysilane]
113 | 15.00 °C | C=C[Si](C)(CC)CC [Vinyldiethylmethylsilane]
114 | 120.00 °C | CCCCCCCCCC[Si](C)(Cl)Cl [n-Decylmethyldichlorosilane]
115 | 79.00 °C | C[Si](C)(C)O[Si](C)(C)O[Si](C)(C)O[Si](C)(C)O[Si](C)(C)C [Dodecamethylpentasiloxane]
